Measurements reported in patent US10251831B2, “Extract for treating wrinkles and/or fine lines” (Avon Products, Inc., priority 2009, dated 2019).

Assays:
[1] = tested on: paxillin mRNA; assay: Stimulation of paxillin mRNA in vitro (QuantiGene multiplex branched DNA assay); format: cell-based; conditions: normal human dermal fibroblasts, 24 hours treatment, normalized to GAPDH
Description: Normal human dermal fibroblasts (Cascade Biologics) were cultured in 96-well tissue culture treated plates, with 200 μl DMEM in 10% serum per well, and incubated for 24 hours at 37° C. and 10% CO2. In some cases, normal human epidermal keratinocytes (Cascade Biologics) were cultured in 200 μl EpiLife medium (Cascade Biologics) per well, and incubated overnight at 37° C. and 5% CO2.
Stock solutions of candidate paxillin stimulators (test materials) were made in appropriate solvents (e.g., DMSO, water, ethanol, a 50:50 ethanol:water mixture) to give weight % as indicated in Table 1 below. Cells were treated with test material or a respective vehicle control diluted in growth medium for 24 hours in a humidified 37° C. incubator with 10% CO2. After incubation, growth medium from each plate was removed and 100 μl of lysis buffer was added to the wells and placed in 37° C. incubator with 5% CO2 for 30 minutes. At the end of incubation, the cells were collected in freezer plates and placed in a −80° C. freezer until analysis.
Changes in mRNA for paxillin in cell lysates after treatment were analysed using QuantiGene® multiplex assay (Panomics Inc. CA) that employs a branched DNA technology. This technology is a hybridization-based method of target-specific RNA quantification that amplifies a signal(s) rather than target RNA, using labelled DNA probe. Probes for Paxillin gene (ID: NM_005953) were designed and synthesized. Paxillin probes, reference probes PPIB and GAPDH, along with a set of other probes were used in this multiplex assay.
The probes used include capture extenders (CE), label extenders (LE), and blockers (BL). As described above, this arrangement provides a target sequence that is double-stranded, thereby improving hybridization efficiency. The CE, LE, and BL sequences used for identifying paxillin mRNA corresponded to SEQ ID NOS: 1, 2, and 3, respectively.
Appropriately diluted cell lysates were hybridized with the paxillin and reference probes in a hybridization plate in a Vortemp shaking incubator, for 18-22 hours at 54° C.±1° C. and 600 rpm. Once the paxillin and the reference mRNAs were captured, the unbound material was filtered using filter plates and washed three times with a wash buffer. Signal amplification was performed using two steps—first a 2.0 Pre-amplifier (Panomics Inc.) was added and incubated for 1 hour in the Vortemp shaking incubator at 54° C.±1° C. and 600 rpm. Unbound Pre-amplifier was filtered using a Filter plate and washed twice. Next the samples were exposed to 2.0 Amplifier (Panomics Inc.) and incubated, filtered, and washed as with the Pre-amplifier. Next the samples were hybridized with biotinylated labelled probe, and incubated for one hour at 54° C.±1° C. and 600 rpm. Samples were then filtered and washed as above. Finally, Streptavidin-conjugated Phycoerythrin (SAPE) working reagent was added and the mixture shaken for 30 minutes at room temperature covered in aluminium foil. Unbound SAPE was filtered and washed twice. SAPE wash buffer was added to each well with shaking for 2-5 minutes, and then readings were taken immediately using a Luminex machine.
Values for amounts of paxillin mRNA were determined along with those for the reference genes PPIB and GAPDH. Values were normalized to GAPDH to determine changes in paxillin mRNA after treatment. Percent increase in mRNA for paxillin was calculated in each case by comparing values after treatment with a candidate paxillin stimulator to values after treatment with the vehicle control.

[2] = tested on: Paxillin protein; assay: Stimulation of paxillin protein in human skin biopsy (topical patch, immunohistochemistry); format: in vivo
Source text: Compositions comprising a paxillin stimulator were each tested on 21 subject volunteers. For each paxillin stimulator, the composition was topically applied via a patch attached to the back of a randomly selected forearm of each of 21 volunteers, and a vehicle control was similarly applied to the back of the volunteer's forearm. After 3 weeks, the human skin biopsies were taken from the treated skin of the various volunteers and subjected to immunohistochemisty preparation. […] Elevated protein level was determined for each treated subject by comparing to the vehicle control.

Cc1ccc(C(C)C)cc1O [Carvacrol]
% increase in Paxillin (relative to control) ([1]; Weight % 0.0001%): 39.50%

O=C(c1ccccc1)N1C[C@@H]2C[C@H](C1)c1ccc(-c3ccco3)c(=O)n1C2 [Compound of Formula V]
% increase in Paxillin (relative to control) ([1]; Weight % 0.00005%): 28.52%

Oc1ccc(C2COc3cc(O)ccc3C2)cc1 (stereo not drawn) [Equol, 4′,7-isoflavandiol]
% increase in Paxillin (relative to control) ([1]; Weight % 0.0001%): 61.46% | % increase in Paxillin (relative to control) ([1]; Weight % 0.001%): 220.36%

CCCCCCCC/C=C\CCCCCCCC(=O)OC/C=C(C)/C=C/C=C(C)/C=C/C1=C(C)CCCC1(C)C [Retinyl oleate]
% increase in Paxillin (relative to control) ([1]; Weight % 0.01%): 60.21%

CCCCC=CC=CC=CCCCCCCCC(=O)OCC=C(C)C=CC=C(C)C=CC1=C(C)CCCC1(C)C [Retinyl punicate]
% increase in Paxillin (relative to control) ([1]; Weight % 0.01%): 69.68%

Cc1coc2c1C(=O)C(=O)c1c-2ccc2c1CCCC2(C)C [Tanshinone IIA, 1,6,6-trimethyl-8,9-dihydro-7H-naphtho[1,2-g][1]benzofuran-10,11-dione]
% increase in Paxillin (relative to control) ([1]; Weight % 0.025%): 188.31%

COc1ccc2cc1Oc1ccc(cc1)C[C@H]1c3cc(c(OC)cc3CCN1C)Oc1c(OC)c(OC)cc3c1[C@H](C2)N(C)CC3 [Tetrandine, 6,6′,7,12-Tetramethoxy-2,2′-dimethyl-berbaman]
% increase in Paxillin (relative to control) ([1]; Weight % 0.001%): 84.31%

CC/C=C\CCCCCO [cis-6-Nonenol, Cis-6-Nonenol]
% Subjects Improved ([2]; percentage of subjects with elevated paxillin protein level vs vehicle control, topical patch on forearm, 3 weeks): 71.4% | paxillin protein in human skin biopsies (antibody stain, FIG. 1) ([2]; representative photographs, compared to treatment with a control): increased paxillin protein | No. Showing Improvement ([2]; subjects with elevated paxillin protein level vs vehicle control, topical patch on forearm, 3 weeks, 21 subjects): 15 | % increase in Paxillin (relative to control) ([1]; Weight % 0.001%): 60.84%
